The record followed here is patent US11512262B2, “Azaphenothiazines and azaphenoxazines as antioxidants” (University of Ottawa, priority 2017, dated 2022).

The experiment can be described thus: hexadecane/PBD-BODIPY co-autoxidation, inhibition by antioxidant. The note with it: hexadecane/PBD-BODIPY co-autoxidations at 70° C. in PhCl. As to the method: FIG. 1 is a graph depicting co-autoxidation of 2.8M hexadecane and 10 μM PBD-BODIPY at 70° C. in PhCl, initiated by 87 mM tBu2O2, and inhibited by 0.6 μM 1, 2, or 9.
Table 1. […] Relative to other antioxidants, autoxidation was inhibited poorly in the catalytic phase. Dye consumption prevented accurate determination of the stoichiometry.
Turning to `COc1ccc2c(n1)Sc1cccnc1N2` [Compound 9, 3-Methoxy-4,9-Diazaphenothiazine], the “Inhibition rate constant kinh” value is “(5.6 ± 0.3) × 10^5 M^−1s^−1” and the Stoichiometry n is 15 ± 2.

On to `CCN(CC)c1ncc2c(n1)Nc1ccccc1S2` [Compound 10, 2-Diethylamino-1,3-Diazaphenothiazine], for which the “Inhibition rate constant kinh” value is on record as “(2.4 ± 0.4) × 10^6 M^−1s^−1” and the Stoichiometry n amounted to 11 ± 0.7.

As to `CCN(CC)c1ncc2c(n1)Nc1ccccc1S2` [Compound 7, 2-Diethylamino-1,3-Diazaphenothiazine], the “Inhibition rate constant kinh” value was “(2.0 ± 0.1) × 10^5 M^−1s^−1” and the Stoichiometry n is given as 4 ± 0.4.

On to `c1ccc2c(c1)Nc1ncccc1S2` [Compound 2, 1-Azaphenothiazine], for which the “Inhibition rate constant kinh” value is given as “(2.8 ± 0.1) × 10^5 M^−1s^−1” and the Stoichiometry n came out at 10 ± 2.

Consider `c1ccc2c(c1)Nc1ncccc1O2` [Compound 1, 1-Azaphenoxazine], for which the “Inhibition rate constant kinh” value is listed as “(6.8 ± 0.2) × 10^5 M^−1s^−1” and the Stoichiometry n worked out at 50 ± 1.

Take `c1ccc2c(c1)Nc1nc(N3CCCC3)ncc1S2` [Compound 8, 2-(Pyrrolidn-1-yl)-1,3-Diazaphenothiazine]: the “Inhibition rate constant kinh” value was “(2.6 ± 0.1) × 10^5 M^−1s^−1” and the Stoichiometry n was determined as 6 ± 0.1.

On to `c1ccc2c(c1)Nc1ccncc1O2` [Compound 3, 3-Azaphenoxazine], for which the “Inhibition rate constant kinh” value is on record as “(1.3 ± 0.2) × 10^5 M^−1s^−1” and the Stoichiometry n is reported as 183 ± 8.

`c1ccc2c(c1)Nc1ccncc1S2` [Compound 4, 3-Azaphenothiazine]: the “Inhibition rate constant kinh” value was “(5.9 ± 0.5) × 10^5 M^−1s^−1” and the Stoichiometry n is on record as 46 ± 3.

On to `CCCCCCCc1nc(C)c2c(n1)Nc1ccccc1O2` [Compound 5, 2-Heptyl-4-methyl-1,3-Diazaphenoxazine], for which the “Inhibition rate constant kinh” value is given as “(9.0 ± 0.3) × 10^5 M^−1s^−1” and the Stoichiometry n stood at 109 ± 4.

Regarding `CCCCCCCc1nc(C)c2c(n1)Nc1ccccc1S2` [Compound 6, 2-Heptyl-4-methyl-1,3-Diazaphenothiazine], the “Inhibition rate constant kinh” value is reported as “(3.3 ± 0.2) × 10^5 M^−1s^−1” and the “Turnover in the catalytic phase (footnote a to n)” value is given as “Inefficient turnover”.
